Where “and” joins values, the source holds several entries; their conditions need not be identical. Identical values can stand only once.
Tests used:
Type in all cases: physicochemical
[1] = Ease of amorphization by ball milling, checked by XRPD; design: key to Success in amorphization (yes/no): yes=y; no=n
Method: Amorphous and co-amorphous systems of the pure drugs and the binary and ternary mixtures with the amino acids or ASPA were prepared by vibrational ball milling.
The samples were prepared by placing a total amount of 500 mg of either the pure crystalline drug, mixtures of drug with one or two amino acids (molar ratio of either 1:1 or 1:1:1) or drug-dipeptides (1:1 molar ratio) in 25 ml milling jars containing two 12 mm stainless steel balls. The samples were milled at 30 Hz up to 180 min in an oscillatory ball mill (Mixer Mill MM400, Retch GmbH & Co, Haan, Germany) placed in a cooling room at 6° C.
(§1) The X-ray powder diffraction (XRPD) analysis was performed using a X'Pert Pro X-ray Diffractometer (PANalytical, Almelo, The Netherlands) using a Cu Kα radiation source (λ=1.54187 Å). An acceleration voltage and current of 45 kV and 40 mA were used. Samples were scanned in reflection mode between 5° and 35° 2θ with a scan speed of 0.0673° 2θ/s and a step size of 0.0262°. Data were collected and analyzed using the software X'Pert Data Collector (PANalytical, Almelo, The Netherlands). Samples were filled onto aluminum sample holders and gently compressed with a spatula, in order to contain a compacted and smooth surface.

[2] = Intrinsic dissolution rate (IDR) of compressed disks; conditions: 0.01M phosphate buffer pH 7.2, 37° C., 100 rpm, triplicate
Method: For the intrinsic dissolution rate (IDR) studies, 150 mg of powder was compressed directly into stainless steel cylinders, which served as IDR sample holders, with a hydraulic press (Hydraulische Presse Model IXB-102-9, PerkinElmer, Ueberlingen, Germany). Disks of pure crystalline drug, pure amorphous drug, and the co-amorphous blends of respectively drug-AA, drug-AA-AA and drug-dipeptide, shown in table 1.1, were compressed at different compaction pressures between 124.9 MPa and 249.7 MPa for 60 seconds in order to obtain a stable compact with smooth surface.
For the dissolution experiment an Erweka DT70 dissolution tester (Erweka GmbH, Heusenstamm, Germany) was used. […] The samples were analyzed with the respective HPLC method for the different drugs as described below. […]
The IDR was calculated as the drug release per accessibility area (μg cm^−2). For this purpose the drug concentration at the different time points was analyzed with HPLC (μg mL-^1), multiplied with 900 ml and divided with the accessible surface area of the drug.
For the pure drugs the accessible area, was set to be the surface area of the compact (0.7854 cm^2). […] The corrected accessible surface area was calculated based on the accessibility area within the mixture. […] From the calculated drug volume and the total volume of the tablet the relative drug volume percentage could be determined. […]

[3] = Physical stability of amorphous and co-amorphous samples on dry storage, recrystallization detected by XRPD; conditions: for Stability at 40° C. / Stability at room temperature: dry conditions, amorphous halo in XRPD
Method: as §1, with “a X'Pert Pro X-ray” left out, “Å).” for “Å).”, “surface. The pure amorphous drugs and co-amorphous mixtures were stored under dry conditions in desiccators at room temperature and 40° C.” for “surface.”

[4] = Powder dissolution, miniaturized USP 2 set-up; conditions: 0.1 M phosphate buffer pH 6.8, 37° C.; for MEB concentration released after 20 min of dissolution: 100 rpm, 5 mg MEB in 100 ml
Method: Powder dissolution studies were performed in an ERWEKA DT70 dissolution tester (Heusenstamm, Germany) equipped with a custom-made miniaturized dissolution set-up described earlier [DOI: 10.1208/s12249-008-9161-6]. This set-up is a down-scaled version (the vessel size is 250 mL) of USP apparatus 2, and the hydrodynamics is essentially similar to the standard USP 2 apparatus. Pure drugs, drug-ASPA mixtures or drug-dipeptide mixtures containing an equivalent amount of 5 mg of MEB or 5 mg of TAD in total were placed in 100 ml of 0.1 M phosphate buffer (pH 6.8, 37° C.) and stirred at a rotation speed of 100 rpm. At predetermined time points (2, 5, 10, 20, 30, 60, 120, 180, 240, 300 and 360 min), 1 ml sample was withdrawn and immediately replaced with pre-warmed dissolution buffer. The obtained samples were quantified after filtration (0.45 μm) with the respective HPLC method for the different drugs as described below. All dissolution experiments were conducted in triplicate.
All samples from the dissolution studies were analyzed on a Dionex (Germering, Germany) HPLC system equipped with a P680 pump, an ASI-100 automated sample injector and a PDA 100 photodiode array detector was used. A reverse-phase Kinetex C18 ([…]×4.6 mm, 5 μm) column with UV detection at 240 nm for CRV, 264 nm for IND, 312 nm for MEB and 285 nm for TAD was used, with a constant flow rate of 1.0 ml min^−1 and an isocratic solvent system. The mobile phases (MP) consisted of 50% (V/V) phosphoric acid (pH=2) and 50% MeOH for the analysis of CRV, 25% (V/V) phosphoric acid (pH=2) and 75% MeOH for the analysis of IND, 47% (V/V) of 0.05 M KH2PO4, 20% (V/V) of acetonitrile and 33% (V/V) methanol for the analysis of MEB, 60% (V/V) 0.0724 M pH 6.8 phosphate buffer and 40% (V/V) of acetonitrile for the analysis of TAD, respectively. Chromatograms were analyzed by using Chromeleon Version 7.1.3.2425 software. […]

In the case of `COc1ccccc1OCCNCC(O)COc1cccc2[nH]c3ccccc3c12` (centres unmarked) [CRV, Carvedilol], the “Success in amorphization (yes/no)” value ([1]; IND and CRV samples, ball milled 90 or 180 min, XRPD) is reported as “y” and the “intrinsic dissolution rate (IDR)” value ([2]; listed as amorphous CRV) is reported as 0.0086±0.001 mg cm^−2 min^−1 and 0.009±0.001 mg cm^−2 min^−1.
With `COc1ccc2c(c1)c(CC(=O)O)c(C)n2C(=O)c1ccc(Cl)cc1` [IND, Indomethacin] the “Stability at 40° C.” value ([3]; IND and CRV) was <7 days, the “Stability at room temperature” value ([3]; IND and CRV) was <7 days and the “recrystallization peaks in the XRPD diffractograms within” value ([3]; storage at room temperature and 40° C. dry conditions, temperature not split in the sentence) was ≤ 7 days. For the same compound, the “intrinsic dissolution rate (IDR)” value [2] was 0.128±0.004 mg cm^−2 min^−1.
With `COC(=O)Nc1nc2ccc(C(=O)c3ccccc3)cc2[nH]1` [MEB, Mebendazole] the “Milling time fully amorphization” value ([1]; MEB samples, XRPD at 30, 60, 90 and 180 min of ball milling) was 60 min, the “Success in amorphization (yes/no)” value ([1]; MEB samples, ball milled, XRPD at 30, 60, 90 and 180 min) was “y” and the “Stability at room temperature” value ([3]; MEB and TAD) was >2 months. The “MEB concentration released after 20 min of dissolution” value ([4]; listed as amorphous MEB) was 0.99 µg/mL and the “concentration after 240 min of dissolution as fold of crystalline MEB” value ([4]; 240 min) was “approx. 4.3 fold”.
For `CN1CC(=O)N2[C@H](c3ccc4c(c3)OCO4)c3[nH]c4ccccc4c3C[C@@H]2C1=O` [TAD, Tadalafil], the “Stability at 40° C.” value ([3]; MEB and TAD) was >2 months and the “Stability at room temperature” value ([3]; MEB and TAD) was >2 months.
For `COC(=O)Nc1nc2ccc(C(=O)c3ccccc3)cc2[nH]1` [crystalline MEB, Mebendazole], the “MEB concentration released after 20 min of dissolution” value [4] was 0.23 µg/mL.

From patent publication US20200146989A1, “A CO-AMORPHOUS FORM OF A SUBSTANCE AND A DIPEPTIDE” (University of Copenhagen, priority 2016, published 2020)
